Patent US10610509B2, “Combinations of prostaglandins and nitric oxide donors” (NICOX S.A., priority 2014, dated 2020)

Assays:
[1] = tested on: ocular normotensive New Zealand White (NZW) rabbits; assay: Intraocular pressure (IOP) lowering activity in ocular normotensive NZW rabbits; format: in vivo; conditions: versus vehicle and versus basal IOP, mean±standard error, compound (12) 0.1%, travoprost 0.004% eye drops
Experimental: Intraocular Pressure (IOP) Lowering Activity in Ocular Normotensive New Zealand White (NZW) Rabbits
The Intraocular pressure (IOP) lowering activity of the combination of compound (12) (0.1%) and travoprost (0.004%) was assessed in ocular normotensive rabbits.
Adults male NZW rabbits weighting 1.8-2.0 Kg were used in the experiments.
IOP was measured using a pneumatonometer 30 CLASSIC™ before topical application (basal) and at different time points (30, 60, 120, 180, 240 and 300 min) thereafter. Travoprost (0.004%) or vehicle (5% cremophor-EL; 0.3% DMSO; 0.2 mg/ml BAC in PBS pH 6.0) were topically administered 5 minutes prior to compound (12) (0.1%) or vehicle (same as above) as eye drops into the conjunctiva pocket. Eyes were randomly assigned to different treatment groups. One drop of 0.4% oxybuprocaine hydrochloride (Novesine, Sandoz) was instilled in each eye immediately before each set of ocular pressure measurements.
Results are reported in the table in which the ocular hypotensive activity of the combination, of compound (12) and of travoprost are expressed as IOP change (at 30, 60, 120 and 300 minutes following topical administration) versus vehicle and versus IOP at basal (mean±standard error).

[2] = tested on: ocular hypertensive New Zealand White (NZW) rabbits; assay: Intraocular pressure (IOP) lowering activity in ocular hypertensive NZW rabbits (hypertonic saline injection); format: in vivo; conditions: versus vehicle and versus basal IOP, mean±standard error, compound (12) 0.3%, travoprost 0.004% topical, hypertonic saline (5%) intravitreal
Experimental: Intraocular Pressure (IOP) Lowering Activity in Ocular Hypertensive New Zealand White (NZW) Rabbits
The Intraocular pressure (IOP) lowering activity of the combination of compound (12) (0.3%) and travoprost (0.004%) was assessed in ocular hypertensive rabbits.
Adult male NZW rabbits weighting 1.8-2.0 Kg were used in the experiments.
NZW rabbits were injected with 0.1 ml of hypertonic saline (5%) into the vitreous humor of both eyes. IOP was measured using a Tono-Pen AVIA Vet® at different time points (30, 60, 120 and 240 min) following hypertonic saline injection as well as before topical drug application (basal).
Travoprost (0.004%) or vehicle (5% cremophor-EL; 0.3% DMSO; 0.2 mg/ml BAC in PBS pH 6.0) were topically administered 15 min before hypertonic saline injection.
Compound (12) (0.3%) or vehicle (5% cremophor-EL; 0.3% DMSO; 0.2 mg/ml BAC in PBS pH 6.0) were topically administered immediately after hypertonic saline injection. Eyes were randomly assigned to different treatment groups.
One drop of 0.4% oxybuprocaine hydrochloride (Novesine, Sandoz) was instilled in each eye immediately before each set of ocular pressure measurements.
The ocular hypotensive effects (at […] following topical administration) of travoprost, compound (12) and the combination of compound (12) and travoprost are reported in table 2.
The results reported in table 2 are expressed as IOP change (at 30, 60, 120 and 300 minutes following topical administration) versus vehicle and versus IOP at basal (mean±standard error).

[3] = 30 minutes after topical administration
[4] = 60 minutes after topical administration
[5] = 120 minutes after topical administration
[6] = 180 minutes after topical administration
[7] = 300 minutes after topical administration

Compound | IOP change [1, 3] [mmHg] | IOP change [1, 4] [mmHg] | IOP change [1, 5] [mmHg] | IOP change [1, 6] [mmHg] | IOP change [1, 7] [mmHg] | IOP change ([2]; 30 minutes) [mmHg] | IOP change ([2]; 60 minutes) [mmHg] | IOP change ([2]; 120 minutes) [mmHg] | IOP change ([2]; 240 minutes) [mmHg]
CC(C)OC(=O)CCC/C=C\C[C@@H]1[C@@H](/C=C/[C@@H](O)COc2cccc(C(F)(F)F)c2)[C@H](O)C[C@@H]1O [Travoprost, 5-heptenoic acid, 7-[(1R,2R,3R,5S)-3,5-dihydroxy-2-[(1E,3R)-3-hydroxy-4-[3-(trifluoromethyl)phenoxy]-1-buten-1-yl]cyclopentyl]-, 1-methylethyl ester, (5Z)-] | −1.6 ± 1.6 | −0.9 ± 1.0 | −1.1 ± 1.2 | −0.8 ± 0.4 | −0.6 ± 0.1 | −2.4 ± 0.5 | −5.0 ± 0.8 | −5.1 ± 0.7 | −1.7 ± 0.4
O=C(CCC[C@@H](CO[N+](=O)[O-])O[N+](=O)[O-])O[C@@H]1CO[C@H]2[C@@H]1OC[C@H]2O [Compound (12), (S)-((3R,3aR,6R,6aR)-6-hydroxyhexahydrofuro[3,2-b]furan-3-yl) 5,6-bis(nitrooxy)hexanoate] | −1.4 ± 0.6 | −2.1 ± 0.4 | −0.3 ± 0.3 | 0.1 ± 0.5 | 1.1 ± 0.8 | −2.4 ± 0.6 | −7.7 ± 0.5 | −6.4 ± 0.5 | −1.8 ± 0.6
